{"source": "patent US20100240763A1", "about": "“Method to Determine and Biomarker for Treatment Efficacy With Ssri, Snri, and Sari Antidepressants” (priority 2006, published 2010)", "key": {"[1]": {"test_system": "BDNF^Met/Met, BDNF^+/− and wild-type mice", "assay": "open-field test after long-term fluoxetine", "format": "in vivo", "conditions": "fluoxetine orally 18 mg/kg of body weight per day for 21 days vs vehicle", "protocol": "In the open-field test, percentage of time spent in the center in the absence (H2O) or presence of fluoxetine (drug) treatment was measured. […] All results are presented as means±SEM determined from analysis of eight mice per genotype (*P<0.05, **P<0.01). […] BDNF^Met/Met were treated orally with fluoxetine (18 mg/kg of body weight per day) or vehicle for 21 days before assessment in two tests: open field and novelty-induced hypophagia."}, "[2]": {"test_system": "transgenic mice homozygous for the G196A polymorphism and control wild-type mice", "assay": "anxiety-related behaviors in conflict/stress tests (open field, elevated plus maze, novelty induced hypophagia) after chronic fluoxetine", "format": "in vivo", "conditions": "chronic administration", "description": "Second, we determined that these mice have increased anxiety-related behaviors as assessed by 3 conflict/stress tests (open field, elevated plus maze, novelty induced hypophagia). These tests for anxiety differ from those used in human studies in that the animals' anxiety-related behaviors are assessed after placement in a stressful environment."}}, "note": "“Also recorded” adds a separate entry of the source."}
{"smiles": "CNCCC(Oc1ccc(C(F)(F)F)cc1)c1ccccc1", "note": "(stereo not drawn) [fluoxetine]", "values": [{"measurement": "entries into the center", "setting": "[1]; BDNF^Met/Met mice", "result": "blunted response"}, {"measurement": "time spent in the center", "setting": "[1]; BDNF^Met/Met mice, 18 mg/kg/day", "result": "blunted response; also recorded: Decreased response"}, {"measurement": "entries into the center", "setting": "[1]; wild-type mice", "result": "increase in entries into the center"}, {"measurement": "time spent in the center", "setting": "[1]; wild-type mice", "result": "significant increase"}, {"measurement": "anxiety-related behaviors", "setting": "[2]; control wild-type mice", "result": "could robustly diminish"}, {"measurement": "reversal of anxiety-related behaviors", "setting": "[2]; transgenic mice homozygous for the G196A polymorphism", "result": "could not reverse"}]}
